Results as given in patent publication US10537516B2, “Composition for treating skin pigmentation and related methods” (Access Business Group International LLC, priority 2017, dated 2020).
≈ marks a conversion by molar mass, not a printed value. Where “and” joins values, the source holds several entries; their conditions need not be identical. Equal entries are not always repeated. Entries after “also recorded” stand apart in the source; their conditions may differ. Where two headings read alike, the source gives them in different places. Marks after values point to notes of the source that are not given here.

What was measured:
B16-F10 cells [1] = assay: Melanin synthesis inhibition in B16-F10 cells; assay type: cell-based, Mus musculus (mouse); details: 100 μg/mL, 72 hours, average of two wells
Method: (§1) The effects of the present skin treatment compounds and plant extracts were evaluated in vitro using a B16-F10 (ATCC# CRL-6475) cell model. The B16-F10 cell model is a Mus musculus (mouse) melanoma skin cell line. The skin treatment compounds and plant extracts were evaluated for cell toxicity, inhibition of melanin synthesis, inhibition of tyrosinase enzyme activity, and elimination of existing melanin in B16-F10 cells. Tables 1 and 2 below list the 5 skin treatment compounds and 17 skin treatment plant extracts evaluated, respectively.
The ability of the skin treatment compounds and plant extracts to inhibit melanin synthesis was evaluated. Melanin is the pigment in skin cells that is responsible for coloring of the skin and various pigmentation disorders, such as age spots and freckles. Inhibition of melanin synthesis may result in lightening of the skin color and/or inhibit further darkening of the skin color. Arbutin is a conventional plant-derived compound used in skin lightening treatments and was therefore selected for use as a positive control.
B16-F10 cells were trypsinized using Trypsin-EDTA (GIBCO Cat. #25200-072) and cell density was determined. The cell slurry was diluted to a concentration of 18,000 cells per milliliter (mL) in a growth media containing RPMI 1640 (GIBCO Cat. #22400-089) supplemented with fetal bovine serum (GIBCO Cat. #10099-141). The diluted cell slurry was dispensed into the wells of a 24 well cell culture plate (BD Falcon Cat. #353047) at 1 mL per well (18,000 cells/well). The cells were incubated overnight at 37° C. and 5% CO2 in humid conditions.
The plated cells were treated by preparing a 200× dilution of each skin lightening compound, plant extract, and arbutin (i.e., the positive control; Sigma Cat. #A4256) in 100% dimethyl sulfoxide (DMSO; Sigma Cat. #D2650). 5 μL of the 200× dilution was added to each well. The treated cells were incubated for 72 hours at 37° C. and 5% CO2 in humid conditions. The skin lightening compounds and plant extracts were evaluated at concentrations of 0 (untreated), 10, 50, and 100 μg/mL. Arbutin was evaluated at concentrations of 0 (untreated), 25, 125, and 250 μg/mL.
When the treatment period was completed, the medium from each well was discarded and the cells were washed once with 1 mL per well of DPBS (Dulbecco's Phosphate-Buffered Saline; Biosera Cat. #LM-S2041). […] The UV absorbance of each well was determined using a plate reader with the primary wave length set to 400 nm.
Melanin synthesis inhibition was determined using the UV absorbance at 400 nm according to the following equation: % Inh=(Max signal−Compound signal)/(Max signal−Min signal)×100

B16-F10 cells [2] = assay: Melanin elimination in forskolin/8-MOP pre-treated B16-F10 cells; assay type: cell-based, Mus musculus (mouse); details: 72 hours, B16-F10 cells pre-treated with forskolin and 8-MOP; for % Melanin Elimination, skin treatment compound/plant extract: 100 μg/mL, average of two wells
Method: as §1
The ability of the skin treatment compounds and plant extracts to eliminate existing melanin within skin cells was evaluated. Melanin is the pigment in skin cells that is responsible for coloring of the skin and various pigmentation disorders, such as age spots and freckles. Elimination of existing melanin inside a cell may result in lightening of the skin color and/or inhibit further darkening of the skin color. […]
B16-F10 cells were trypsinized using Trypsin-EDTA and cell density was determined. The cell slurry was diluted to a concentration of 18,000 cells per milliliter (mL) in a growth media containing RPMI 1640 supplemented with fetal bovine serum. The diluted cell slurry was dispensed into the wells of a 24 well cell culture plate at 1 mL per well (18,000 cells/well). The cells were incubated overnight at 37° C. and 5% CO2 in humid conditions.
Following the overnight incubation, the medium was discarded and replaced with 1 mL per well of growth media including 50 μM forskolin (Sigma Cat. #F6886) and 10 μM 8-Methoxypsoralen (8-MOP; Alfa Aesar Cat. #A17108). The cells were then incubated for 72 hours at 37° C. and 5% CO2 in humid conditions.
The medium in each well was discarded and replaced with 1 mL/well. 5 μL of the 200× dilution was added to each well. The treated cells were incubated for 72 hours at 37° C. and 5% CO2 in humid conditions. The skin lightening compounds and plant extracts were evaluated at concentrations of 0 (untreated), 10, 50, and 100 μg/mL. […]
When the treatment period was completed, the medium from each well was discarded and the cells were washed once with 1 mL per well of DPBS. The DPBS wash was removed and 150 μL of 1N sodium hydroxide was added to each well for 30 minutes while the cells were incubated at 80° C. to lyse the cells. Next, 145 μL from each well was transferred to a UV plate and the remaining 5 μL was tested to determine the protein concentration. The UV absorbance of each well was determined using a plate reader with the primary wave length set to 400 nm.
Melanin elimination was determined using the UV absorbance at 400 nm according to the following equation: % Inh=(Max signal−Compound signal)/(Max signal−Min signal)×100
Where “% Inh” is the percent of melanin eliminated from the cell, the “Max signal” is the UV absorption for cells treated with forskolin and 8-MOP, and the “Min signal” is the UV absorption of untreated cells.

tyrosinase enzyme = target: T1, tyrosinase enzyme (Mus musculus, UniProt P11344); assay: Tyrosinase enzyme activity inhibition in treated B16-F10 cells (L-DOPA); assay type: cell-based; details: 72 hours
T1 construct: endogenous in cells; host or cells: B16-F10 (ATCC# CRL-6475) mouse melanoma cells
T1 sequence (P11344 19-533): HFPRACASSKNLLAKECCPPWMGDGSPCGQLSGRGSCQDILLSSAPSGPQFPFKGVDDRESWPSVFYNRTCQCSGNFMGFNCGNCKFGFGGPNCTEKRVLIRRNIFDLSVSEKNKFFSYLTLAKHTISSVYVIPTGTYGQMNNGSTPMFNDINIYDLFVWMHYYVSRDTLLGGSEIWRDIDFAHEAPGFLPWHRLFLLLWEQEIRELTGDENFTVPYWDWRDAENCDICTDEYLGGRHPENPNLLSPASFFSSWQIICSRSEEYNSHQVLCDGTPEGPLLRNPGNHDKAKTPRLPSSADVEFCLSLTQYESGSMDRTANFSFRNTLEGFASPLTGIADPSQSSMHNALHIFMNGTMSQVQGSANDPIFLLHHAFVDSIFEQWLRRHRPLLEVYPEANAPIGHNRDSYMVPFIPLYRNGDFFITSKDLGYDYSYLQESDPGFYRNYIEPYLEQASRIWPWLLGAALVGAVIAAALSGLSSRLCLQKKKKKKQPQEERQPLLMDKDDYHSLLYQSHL
Method: The ability of the skin treatment compounds and plant extracts to inhibit tyrosinase enzyme activity was evaluated. Tyrosinase enzyme is involved in melanin production and thus inhibition of tyrosinase may suppress melanin production, which may result in lightening of skin color and/or inhibition of further darkening of skin color. Arbutin is a conventional plant-derived compound used in skin lightening treatments and was therefore selected for use as a positive control. B16-F10 cells were trypsinized using Trypsin-EDTA and cell density was determined. The cell slurry was diluted to a concentration of 18,000 cells per milliliter (mL) in a growth media containing RPMI 1640 supplemented with fetal bovine serum. […] Arbutin was evaluated at concentrations of 0 (untreated), 25, 125, and 250 μg/mL. […] The UV absorbance of each well was determined using a plate reader with the primary wave length set to 475 nm. Tyrosinase inhibition was determined using the UV absorbance at 475 nm according to the following equation: % Inh=(Max signal−Compound signal)/(Max signal−Min signal)×100 Where “% Inh” is the percent inhibition of tyrosinase, the “Max signal” is the UV absorption for cells treated with L-DOPA, and the “Min signal” is the UV absorption of cells not treated with L-DOPA.

B16-F10 cells [3] = assay: CellTiter-Glo (CTG) Luminescent Cell Viability Assay (cell toxicity); assay type: cell-based, Mus musculus (mouse); details: for IC50: Mus musculus, read-out: IC50 cellular toxicity, skin treatment compound/plant extract
Method: The toxicity of the skin treatment compounds and plant extracts was evaluated using the CellTiter-Glo® (CTG) Luminescent Cell Viability Assay from Promega Corporation. The assay determines the number of viable cells in culture based on quantitation of the ATP present, which is indicative of the presence of metabolically active cells.
The CellTiter-Glo® reagent was added to the cells and the luminescence was obtained according to the assay instructions provided by Promega Corporation. The IC50 was calculated for each skin treatment compound or plant extract and the corresponding positive control.

[4] = B16-F10 cells, 72 hours, 0.01 to 100 ug/mL, CellTiter-Glo

O=C(O)CCCC[C@@H]1CCSS1 (racemic) [Lipoic acid] was tested, and the “% Melanin Synthesis Inhibition, skin treatment compound/plant extract” value (B16-F10 cells [1]) was 30.3** %, the “% Melanin Elimination, skin treatment compound/plant extract” value (B16-F10 cells [2]) was 65.7% and the “% Tyrosinase Inhibition, skin treatment compound/plant extract” value (tyrosinase enzyme; 100 μg/mL, average of two wells) was 98.6%. For the same compound, the “IC50 cellular toxicity, skin treatment compound/plant extract” value (B16-F10 cells [3]; [4]) was greater than 100 µg/mL.

With OC[C@H]1O[C@@H](Oc2ccc(O)cc2)[C@H](O)[C@@H](O)[C@@H]1O [Arbutin] the “% Tyrosinase Inhibition (Arbutin)” value (tyrosinase enzyme; arbutin 125 μg/mL, control of the same line) was 38.3% and 52.8%.

In the case of CN[C@@H](C)[C@H]1[C@H](O)C[C@@]2(C)[C@@H]3CC[C@H]4C(C)(C)[C@@H](NC)CC[C@@]45C[C@@]35CC[C@]12C [Cyclovirobuxine D], the “% Melanin Synthesis Inhibition, skin treatment compound/plant extract” value (B16-F10 cells [1]) was 53.2%, the “% Melanin Elimination, skin treatment compound/plant extract” value (B16-F10 cells [2]) was 92.4% and the “IC50 cellular toxicity, skin treatment compound/plant extract” value (B16-F10 cells [3]; [4]) was greater than 100 µg/mL.

For Oc1ccc(O)cc1 [Hydroquinone, reference compound], the “% Melanin Elimination (hydroquinone control)” value (B16-F10 cells [2]; hydroquinone 100 μg/mL) was 70.6% and the “IC50 cellular toxicity, Hydroquinone IC50 (corresponding positive control)” value (B16-F10 cells [3]; B16-F10 cells, 72 hours, hydroquinone positive control run with the substance of the same line) was “(7.0) μg/mL; also recorded: (4.2) μg/mL; also recorded: (4.1) μg/mL”.

With COc1cc2c3c(c1OC)-c1ccccc1C[C@H]3N(C)CC2 [Nuciferine] the inhibition at 100 µg/mL (B16-F10 cells [1]; Mus musculus, read-out: % Melanin Synthesis Inhibition, skin treatment compound/plant extract) was 104%, the “% Melanin Elimination, skin treatment compound/plant extract” value (B16-F10 cells [2]) was 34.1% and the IC50 (B16-F10 cells [3]; B16-F10, 72 h) was 62.2 µg/mL (≈ 211 µM).

With C/C=C1/[C@H](O[C@@H]2O[C@H](CO)[C@@H](O)[C@H](O)[C@H]2O)OC=C(C(=O)OC)[C@H]1CC(=O)OCCc1ccc(O)c(O)c1 [Oleuropein] the “% Melanin Elimination, skin treatment compound/plant extract” value (B16-F10 cells [2]) was 37.0% and the IC50 (B16-F10 cells [3]; [4]) was 90.3 µg/mL (≈ 167 µM).

For CC1=C2C[C@H]3[C@@H](CC(=O)[C@H]4C[C@@H](O)CC[C@@]43C)[C@@H]2CC[C@]12O[C@@H]1C[C@H](C)CN[C@H]1[C@H]2C [Peimisine], the “% Melanin Synthesis Inhibition, skin treatment compound/plant extract” value (B16-F10 cells [1]) was 62.1%, the “% Melanin Elimination, skin treatment compound/plant extract” value (B16-F10 cells [2]) was 23.8% and the “IC50 cellular toxicity, skin treatment compound/plant extract” value (B16-F10 cells [3]; [4]) was greater than 50 µg/mL.
